{"source": "patent US20160280743A1", "about": "“BACTERIAL MUTANTS AND METHODS OF USE” (priority 2015, published 2016)", "key": {"[1]": {"tested_on": "E. coli WT, WT-Pore, ΔTolC, ΔTolC-Pore", "format": "cell-based, Escherichia coli", "details": "E. coli"}, "[2]": {"tested_on": "E. coli WT-Pore (GKCW101, FhuAΔC/Δ4L pore)", "details": "0.1% arabinose, LB, 37° C., 16 h", "experimental": "(§1) Susceptibilities of E. coli and P. aeruginosa cells to different classes of antibiotics were determined by two-fold broth dilution method [1] with following modifications. Cells were grown in Luria-Bertani (LB) broth (tryptone 10 g/L, yeast extract 5 g/L and NaCl 5 g/L) with appropriate selection markers as needed, at 37° C. with shaking at 200 rpm. When needed, at OD600˜0.3, either L-arabinose (final concentration 0.1%) or IPTG (final concentration 0.1 mM) were added to induce the expression of the pore and cells were further incubated until OD600 reached 1.0. MICs of various antimicrobial agents were measured in 96-well micro-titer plates. For this purpose, exponentially growing cells were inoculated at a density of 10^5 cells/ml into wells containing LB medium in the presence of two-fold increasing concentrations of drugs under investigation at constant inducer concentration of 0.1% arabinose for E. coli or 0.1 mM IPTG for P. aeruginosa strains. Cell growth was determined visually or using Spark 10M microplate reader (Tecan) after incubation of the micro-titer plates at 37° C. for 16 h.\n(§2) For this purpose, induced cells were dispensed into 96-well microplates with LB medium containing two-fold dilutions of an antibiotic of interest and a respective concentration of an inducer."}, "E. coli BW 25113 (WT)": {"tested_on": "E. coli BW 25113 (WT)", "details": "E. coli WT without pore; 0.1% arabinose; LB, 37° C., 16 h", "experimental": "as §1, §2"}, "E. coli GD102 (ΔTolC)": {"tested_on": "E. coli GD102 (ΔTolC)", "details": "E. coli ΔTolC without pore; 0.1% arabinose; LB, 37° C., 16 h", "experimental": "as §1, §2"}, "[3]": {"tested_on": "E. coli ΔTolC-Pore (GKCW103, FhuAΔC/Δ4L pore)", "details": "0.1% arabinose, LB, 37° C., 16 h", "experimental": "as §1, §2"}, "[4]": {"tested_on": "P. aeruginosa PAO1Δ3 (Δ3)", "details": "P. aeruginosa Δ3 without pore; 0.1 mM IPTG; LB, 37° C., 16 h", "experimental": "as §1, §2"}, "[5]": {"tested_on": "P. aeruginosa PAO1, PAO1-Pore, Δ3, Δ3-Pore", "assay": "Fold MIC change between P. aeruginosa strains (OM barrier, efflux)", "format": "cell-based, Pseudomonas aeruginosa", "details": "P. aeruginosa"}, "[6]": {"tested_on": "P. aeruginosa Δ3-Pore (GKCW116, FhuAΔC/Δ4L pore)", "assay": "MIC, two-fold broth dilution, P. aeruginosa Δ3-Pore", "details": "P. aeruginosa Δ3-Pore; 0.1 mM IPTG; LB, 37° C., 16 h", "experimental": "as §1, §2"}, "[7]": {"tested_on": "P. aeruginosa PAO1-Pore (GKCW115, FhuAΔC/Δ4L pore)", "assay": "MIC, two-fold broth dilution, P. aeruginosa PAO1-Pore", "details": "P. aeruginosa PAO1-Pore; 0.1 mM IPTG; LB, 37° C., 16 h", "experimental": "as §1, §2"}, "P. aeruginosa PAO1": {"tested_on": "P. aeruginosa PAO1", "details": "P. aeruginosa PAO1 without pore; 0.1 mM IPTG; LB, 37° C., 16 h", "experimental": "as §1, §2"}}}
{"compound": "Virginiamycin", "values": [{"measurement": "Fold MIC change, Efflux, WT-Pore/ΔTolC-Pore", "setting": "[1]", "result": 512, "unit": "fold"}, {"measurement": "Fold MIC change, Efflux, WT/ΔTolC", "setting": "[1]", "result": "≧64 fold"}, {"measurement": "Fold MIC change, OM barrier, WT/WT-Pore", "setting": "[1]", "result": "≧2 fold"}, {"measurement": "Fold MIC change, OM barrier, ΔTolC/ΔTolC-Pore", "setting": "[1]", "result": 16, "unit": "fold"}, {"measurement": "MIC BW 25113 (WT) Pore", "setting": "[2]", "result": 256, "unit": "µg/mL"}, {"measurement": "MIC BW 25113 (WT) —", "setting": "E. coli BW 25113 (WT)", "result": ">256", "unit": "µg/mL"}, {"measurement": "MIC GD102 (ΔTolC) —", "setting": "E. coli GD102 (ΔTolC)", "result": 8, "unit": "µg/mL"}, {"measurement": "MIC GD102 (ΔTolC) Pore", "setting": "[3]", "result": 0.5, "unit": "µg/mL"}]}
{"compound": "Gentamicin", "values": [{"measurement": "Fold MIC change, Efflux, WT-Pore/ΔTolC-Pore", "setting": "[1]", "result": 0.5, "unit": "fold"}, {"measurement": "Fold MIC change, Efflux, WT/ΔTolC", "setting": "[1]", "result": 1, "unit": "fold"}, {"measurement": "Fold MIC change, OM barrier, WT/WT-Pore", "setting": "[1]", "result": 2, "unit": "fold"}, {"measurement": "Fold MIC change, OM barrier, ΔTolC/ΔTolC-Pore", "setting": "[1]", "result": 1, "unit": "fold"}, {"measurement": "MIC BW 25113 (WT) Pore", "setting": "[2]", "result": 2, "unit": "µg/mL"}, {"measurement": "MIC BW 25113 (WT) —", "setting": "E. coli BW 25113 (WT)", "result": 4, "unit": "µg/mL"}, {"measurement": "MIC GD102 (ΔTolC) —", "setting": "E. coli GD102 (ΔTolC)", "result": 4, "unit": "µg/mL"}, {"measurement": "MIC GD102 (ΔTolC) Pore", "setting": "[3]", "result": 4, "unit": "µg/mL"}]}
{"compound": "Tobramycin", "values": [{"measurement": "MIC Δ3 —", "setting": "[4]", "result": 0.5, "unit": "µg/mL"}, {"measurement": "Fold MIC change, Efflux, PAO1-Pore/Δ3-Pore", "setting": "[5]", "result": 2, "unit": "fold"}, {"measurement": "Fold MIC change, Efflux, PAO1/Δ3", "setting": "[5]", "result": 4, "unit": "fold"}, {"measurement": "Fold MIC change, OM barrier, PAO1/PAO1-Pore", "setting": "[5]", "result": 2, "unit": "fold"}, {"measurement": "Fold MIC change, OM barrier, Δ3/Δ3-Pore", "setting": "[5]", "result": 1, "unit": "fold"}, {"measurement": "MIC Δ3 Pore", "setting": "[6]", "result": 0.5, "unit": "µg/mL"}, {"measurement": "MIC PAO1 Pore", "setting": "[7]", "result": 1, "unit": "µg/mL"}, {"measurement": "MIC PAO1 —", "setting": "P. aeruginosa PAO1", "result": 2, "unit": "µg/mL"}]}
{"compound": "Triclosan", "values": [{"measurement": "MIC Δ3 —", "setting": "[4]", "result": 32, "unit": "µg/mL"}, {"measurement": "MIC BW 25113 (WT) Pore", "setting": "[2]", "result": 0.031, "unit": "µg/mL"}, {"measurement": "MIC BW 25113 (WT) —", "setting": "E. coli BW 25113 (WT)", "result": 0.031, "unit": "µg/mL"}, {"measurement": "MIC GD102 (ΔTolC) —", "setting": "E. coli GD102 (ΔTolC)", "result": 0.004, "unit": "µg/mL"}, {"measurement": "MIC Δ3 Pore", "setting": "[6]", "result": 8, "unit": "µg/mL"}, {"measurement": "MIC PAO1 Pore", "setting": "[7]", "result": ">1024", "unit": "µg/mL"}, {"measurement": "MIC GD102 (ΔTolC) Pore", "setting": "[3]", "result": 0.002, "unit": "µg/mL"}, {"measurement": "MIC PAO1 —", "setting": "P. aeruginosa PAO1", "result": ">1024", "unit": "µg/mL"}]}
{"compound": "CCCCCCCCCCCCOS(=O)(=O)[O-].[Na+]", "note": "[SDS]", "values": [{"measurement": "MIC Δ3 —", "setting": "[4]", "result": 10000, "unit": "µg/mL"}, {"measurement": "Fold MIC change, Efflux, WT-Pore/ΔTolC-Pore", "setting": "[1]", "result": 2000, "unit": "fold"}, {"measurement": "Fold MIC change, Efflux, WT/ΔTolC", "setting": "[1]", "result": 2000, "unit": "fold"}, {"measurement": "Fold MIC change, OM barrier, WT/WT-Pore", "setting": "[1]", "result": 1, "unit": "fold"}, {"measurement": "Fold MIC change, OM barrier, ΔTolC/ΔTolC-Pore", "setting": "[1]", "result": 1, "unit": "fold"}, {"measurement": "MIC BW 25113 (WT) Pore", "setting": "[2]", "result": 10000, "unit": "µg/mL"}, {"measurement": "Fold MIC change, Efflux, PAO1-Pore/Δ3-Pore", "setting": "[5]", "result": 64, "unit": "fold"}, {"measurement": "Fold MIC change, Efflux, PAO1/Δ3", "setting": "[5]", "result": "≧2 fold"}, {"measurement": "Fold MIC change, OM barrier, PAO1/PAO1-Pore", "setting": "[5]", "result": "≧2 fold"}, {"measurement": "Fold MIC change, OM barrier, Δ3/Δ3-Pore", "setting": "[5]", "result": 64, "unit": "fold"}, {"measurement": "MIC BW 25113 (WT) —", "setting": "E. coli BW 25113 (WT)", "result": 10000, "unit": "µg/mL"}, {"measurement": "MIC GD102 (ΔTolC) —", "setting": "E. coli GD102 (ΔTolC)", "result": 5, "unit": "µg/mL"}, {"measurement": "MIC Δ3 Pore", "setting": "[6]", "result": 156.3, "unit": "µg/mL"}, {"measurement": "MIC PAO1 Pore", "setting": "[7]", "result": 10000, "unit": "µg/mL"}, {"measurement": "MIC GD102 (ΔTolC) Pore", "setting": "[3]", "result": 5, "unit": "µg/mL"}, {"measurement": "MIC PAO1 —", "setting": "P. aeruginosa PAO1", "result": ">10000", "unit": "µg/mL"}]}
{"compound": "Coumermycin", "values": [{"measurement": "MIC Δ3 —", "setting": "[4]", "result": 16, "unit": "µg/mL"}, {"measurement": "Fold MIC change, Efflux, WT-Pore/ΔTolC-Pore", "setting": "[1]", "result": 4, "unit": "fold"}, {"measurement": "Fold MIC change, Efflux, WT/ΔTolC", "setting": "[1]", "result": 1, "unit": "fold"}, {"measurement": "Fold MIC change, OM barrier, WT/WT-Pore", "setting": "[1]", "result": 4, "unit": "fold"}, {"measurement": "Fold MIC change, OM barrier, ΔTolC/ΔTolC-Pore", "setting": "[1]", "result": 16, "unit": "fold"}, {"measurement": "MIC BW 25113 (WT) Pore", "setting": "[2]", "result": 2, "unit": "µg/mL"}, {"measurement": "Fold MIC change, Efflux, PAO1-Pore/Δ3-Pore", "setting": "[5]", "result": 1, "unit": "fold"}, {"measurement": "Fold MIC change, Efflux, PAO1/Δ3", "setting": "[5]", "result": 1, "unit": "fold"}, {"measurement": "Fold MIC change, OM barrier, PAO1/PAO1-Pore", "setting": "[5]", "result": 16, "unit": "fold"}, {"measurement": "Fold MIC change, OM barrier, Δ3/Δ3-Pore", "setting": "[5]", "result": 16, "unit": "fold"}, {"measurement": "MIC BW 25113 (WT) —", "setting": "E. coli BW 25113 (WT)", "result": 8, "unit": "µg/mL"}, {"measurement": "MIC GD102 (ΔTolC) —", "setting": "E. coli GD102 (ΔTolC)", "result": 8, "unit": "µg/mL"}, {"measurement": "MIC Δ3 Pore", "setting": "[6]", "result": 1, "unit": "µg/mL"}, {"measurement": "MIC PAO1 Pore", "setting": "[7]", "result": 1, "unit": "µg/mL"}, {"measurement": "MIC GD102 (ΔTolC) Pore", "setting": "[3]", "result": 0.5, "unit": "µg/mL"}, {"measurement": "MIC PAO1 —", "setting": "P. aeruginosa PAO1", "result": 16, "unit": "µg/mL"}]}
